The NIST ThermoML archive (doi:10.1016/j.tca.2011.08.002)
Numbers after ± are expanded uncertainties.

Test: xn = mol fraction of the nth substance listed
Settings: 101 kPa, Liquid, Vibrating tube method

C1CCC(NC2CCCCC2)CC1 [N-cyclohexylcyclohexanamine] + CCCO
mass density [kg/m3]
Settings	288.15 K	293.15 K	298.15 K	303.15 K	308.15 K	313.15 K	318.15 K	323.15 K
x2 = 0	915.498 ± 0.23	911.705 ± 0.23	907.923 ± 0.23	904.144 ± 0.23	900.372 ± 0.23	896.608 ± 0.23	892.847 ± 0.23	889.089 ± 0.23
x2 = 0.0527	914.71 ± 0.23	910.893 ± 0.23	907.079 ± 0.23	903.271 ± 0.23	899.466 ± 0.23	895.664 ± 0.23	891.862 ± 0.23	888.061 ± 0.23
x2 = 0.1009	913.805 ± 0.22	909.957 ± 0.22	906.116 ± 0.22	902.276 ± 0.22	898.437 ± 0.22	894.6 ± 0.22	890.759 ± 0.22	886.919 ± 0.22
x2 = 0.2004	911.438 ± 0.2	907.522 ± 0.2	903.612 ± 0.2	899.7 ± 0.2	895.78 ± 0.2	891.876 ± 0.21	887.957 ± 0.21	884.032 ± 0.21
x2 = 0.3002	908.197 ± 0.19	904.203 ± 0.19	900.208 ± 0.19	896.218 ± 0.19	892.225 ± 0.19	888.227 ± 0.19	884.225 ± 0.19	880.209 ± 0.2
x2 = 0.4003	903.914 ± 0.18	899.835 ± 0.18	895.758 ± 0.18	891.683 ± 0.18	887.605 ± 0.18	883.521 ± 0.18	879.43 ± 0.18	875.326 ± 0.18
x2 = 0.5005	898.063 ± 0.17	893.905 ± 0.17	889.747 ± 0.17	885.59 ± 0.17	881.429 ± 0.17	877.263 ± 0.17	873.086 ± 0.17	868.893 ± 0.18
x2 = 0.6	889.96 ± 0.16	885.737 ± 0.16	881.518 ± 0.16	877.299 ± 0.16	873.074 ± 0.16	868.843 ± 0.16	864.613 ± 0.17	860.363 ± 0.17
x2 = 0.6998	878.617 ± 0.15	874.377 ± 0.15	870.137 ± 0.16	865.887 ± 0.16	861.626 ± 0.16	857.35 ± 0.16	853.054 ± 0.16	848.736 ± 0.17
x2 = 0.8	862.501 ± 0.14	858.315 ± 0.15	854.115 ± 0.15	849.899 ± 0.15	845.662 ± 0.16	841.4 ± 0.16	837.107 ± 0.16	832.782 ± 0.17
x2 = 0.8999	839.78 ± 0.15	835.696 ± 0.15	831.592 ± 0.15	827.461 ± 0.15	823.3 ± 0.16	819.106 ± 0.16	814.869 ± 0.16	810.587 ± 0.17
x2 = 0.9491	825.362 ± 0.15	821.334 ± 0.16	817.281 ± 0.16	813.202 ± 0.16	809.088 ± 0.16	804.934 ± 0.16	800.736 ± 0.17	796.489 ± 0.17
